The source of these data is patent US20240209010A1, “PRODRUGS OF AZO COMPOUNDS AND THEIR SALTS” (KASHIV BIOSCIENCES, LLC, priority 2021, published 2024).

Data set [1] in a line: Pharmacokinetic data in rat after single oral administration. To be noted: analyte = the administered compound itself, single oral dose (No. 12 31.2, No. 43 32.8, No. 446 34.8, No. 449 25, XIII 21.2, No. 54 27 mg/kg), fasted female Sprague Dawley rat. The class given is in vivo. The method, then:
The objective of the study was to evaluate pharmacokinetic exposure of Compound XI along with Compound No. 12/Compound No. 43/Compound No. 446/Compound No. 449/Compound XIII/Compound No. 54 after per oral dosing at 31.2 mg/kg of Compound No. 12, 32.8 mg/kg of Compound No. 43, 34.8 mg/kg of Compound No. 446, 25 mg/kg of Compound No. 449, 21.2 mg/kg of Compound XIII and 27 mg/kg of Compound No. 54 in female Sprague Dawley rat. This study was performed in overnight fasted female Sprague Dawley rat. Dose formulation was prepared freshly on the day of dosing. 0.1% tween-80+99.9% of 0.5% CMC was used as vehicle for the preparation of dose formulation.
Blood samples were collected through retro orbital plexus puncture at pre-dose, 0.25, 0.5, 1, 2, 4, 8, 12 and 24 h post-dose. At each time point, blood was withdrawn and transferred into a pre-labeled of micro centrifuge tubes containing anti-coagulant. Tube was mixed gently by inverting the tube to facilitate mixing of anticoagulant with the blood. All blood/plasma samples were analysed using fit-for purpose LC-MS/MS method.
The pharmacokinetic parameters were calculated using standard non-compartmental analysis (Phoenix® software, version 8.3, Pharsight Corporation, Mountain View, California 94040/USA) using linear trapezoidal method with linear interpolation.

For another data set, the system named is P2RX3 gene. In words: Gene expression analysis (qRT-PCR) of P2RX3 in cyclophosphamide-treated RT4 cells. The class given is cell-based, Human. Particulars: 100 μM CYP + 10 μM compound, 4 h incubation, compared to CYP control. Here is the method:
Study Design: With objective of evaluating effect of text compounds on the pain related markers we have utilized human urothelial “RT4 (Human Urinary bladder carcinoma cells)” cells, treated with test compounds in combination with cyclophosphamide (CYP) and performed gene expression analysis of pain related gene. For gene expression study, 0.5×10^6 cells were treated with cyclophosphamide and test compounds. Cells were incubated for 4 h at 37° C. Experimental Groups: Groups 1: Untreated cells, Group 2: CYP treated (100 μM CYP), Group 3: CYP+Compound IX (100 μM CYP+10 μM Compound IX).
At the end of 4 hr incubation, medium was removed from all wells and cells were washed once with sterile PBS. RNA isolation was performed as per the manufacturer's instruction utilizing Qiagen RNA mini kit (Cat #74104). Followed by cDNA synthesis using 3 μg of total RNA each sample utilizing Superscript III First strand cDNA synthesis system (Thermo fisher, Cat No 18080051). qRT-PCR was performed using the SYBR green master mix (PCR Biosystems, Cat No:—PB20.14) and primers specific for P2RX3 gene. Upon the completion of PCR, the data was analysed using the CFX manager software. The Fold change of the expression was calculated using the following formula: 2^−ddCT=2^−((CT target −CT internal control)

As to `NCC(=O)Nc1ccc(/N=N/c2ccccc2OC(=O)N2CCOCC2)c(N)n1` [Compound No. 446], the “AUC% Extrap—obs” value in data set [1] was determined as 11.73%. In data set [1] (in vivo), the AUC(0-t) came out at 151 ng·h/mL and the Tmax stood at 15 min. Besides, the concentration in data set [1] (in vivo, arithmetic mean) peaked (Cmax) at 145 ng/mL. For the same compound, the AUC(0-inf) in data set [1] (in vivo, read-out: AUCinf—obs) came out at 170 ng·h/mL.

On to `Nc1nc(N)c(/N=N/c2ccccc2)cc1O` [Compound IX], for which the “P2RX3 gene expression (fold change)” value with P2RX3 gene is listed as “reduction in P2RX3 gene expression”.
